The values that follow are results of earlier work, collected in patent US6689455B2, “Method of producing hexagonal ferrite and magnetic recording medium using said hexagonal ferrite” (Fuji Photo Film Co., Ltd., priority 2001, dated 2004).

Each structure is given as a SMILES string.

The conditions of this data set: for pKa: value in parentheses after the compound name, acetic acid: 2 mol/l aqueous solution; for Organic matter pKa value: organic matter used to treat the ferrite powder, Tables 1 and 2; for pKa1: first dissociation of dicarboxylic acids.

As to `O=S(=O)(O)c1ccccc1` [benzenesulfonic acid], the pKa (commonly the negative logarithm of the acid dissociation constant) was 2.55. Take `O=C(NO)c1ccccc1` [benzohydroxamic acid]: the pKa is given as 2.3. As for `O=P([O-])([O-])CN(CCN(CCN(CP(=O)([O-])[O-])CP(=O)([O-])O)CP(=O)([O-])O)CP(=O)([O-])O.[Na+].[Na+].[Na+].[Na+].[Na+].[Na+].[Na+]` [heptasodium diethylenetriamine-pentamethylene phosphonate], the “Organic matter pKa value” is 1.8.

Take `O=P(O)(O)Oc1ccccc1` [phenoxyphosphonic acid]: the “Organic matter pKa value” was 2.0 and the pKa is listed as 1.95. In the case of `O=P(O)(O)c1ccccc1` [phenylphosphonic acid], the “Organic matter pKa value” is listed as 1.8 and the pKa was 1.8. For `O=C(O)c1ccccc1C(=O)O` [phthalic acid], the pKa1 is given as 2.75. Turning to `NS(=O)(=O)O` [sulfaminic acid], the pKa is recorded as 1.65.

Take `O=C(O)c1ccc(C(=O)O)cc1` [terephthalic acid]: the pKa1 is 3.54.
